Measured values reported in PMC12212259, “Evaluation of AlphaFold modeling for elucidation of nanobody–peptide epitope interactions” (The Journal of Biological Chemistry, 2025).
Peptide text beside a SMILES is read from it.

Experiments:
[1] = system: Nb6E (A2AR-Nb6E-ALFA) on HEK293 cells; experiment: Flow cytometry competition binding against FAM-6E-C14 on HEK293 cells; parameters: species or system human; conditions: peptides 10-0.01 μM vs 10 nM FAM-6E-C14, 30 m, median AF647 fluorescence
Procedure: Human embryonic kidney 293 cells stably expressing a cell surface protein fused with Nb6E (A2AR-Nb6E-ALFA, described previously ([25])) were cultured in Dulbecco's modified Eagle's media containing 10% fetal bovine serum (Thermo; #A5256801) and 1X penicillin–streptomycin (Thermo; #15140-122). Binding assays were performed as described previously ([25]). Briefly, cells were suspended in 2% bovine serum albumin (BSA) in 1X PBS (w/v) (BSA-PBS) with variable concentrations of unlabeled variant 6E peptides (10–0.01 μM) and 10 nM fluorescein-labeled 6E peptide (FAM-6E-C14) for 30 m followed by 2x washing with BSA-PBS, and subsequent staining with antifluorescein Ab conjugated with AlexaFluor647 (1.5:1000 dilution in BSA-PBS; Jackson ImmunoResearch; #200-602-037). Cells were incubated again for 30 m, pelleted, washed, and analyzed by flow cytometry on a CytoFlex flow cytometer (Beckman Coulter). Cell labeling intensity was monitored in the FL4-APC channel. Live cells were identified and gated based on forward scatter–side scatter profile. […] Median fluorescence intensity for cell counts observed in the APC channel for each sample was calculated from histograms. Median fluorescence intensity values obtained from technical replicates of the same sample were averaged and plotted against the corresponding concentration of the variant 6E peptide.

[2] = system: Nb6E; experiment: SPR analysis of 6E variant peptides binding to immobilized Nb6E-biotin
Procedure: (§1) SPR biosensor analysis was conducted on a Biacore T200 instrument (Cytiva) using a Series S Sensor Chip SA (streptavidin; Cytiva, #29104992) to determine Nb–tag binding affinity. All binding analyses were done in degassed SPR running buffer (1X PBS at pH 7.4 plus 0.05% P20). Biotinylated Nbs (Nb6E or Nb127), produced by sortagging reaction, was captured on SA chip where streptavidin is covalently coupled to dextran matrix. Biotinylated Nb (1 μM) was immobilized on flow cell via biotin–streptavidin interaction to reach a target response value of approximately 2000 response units. A separate flow cell was capped with only SPR running buffer to use as a surface control for nonspecific binding.
(§2) Analyte samples (127-tag peptide or mutant-6E peptides) were prepared as serial dilutions in SPR running buffer. Analyte was flowed over the chip at 50 μl/min with a contact time of 60 s and a dissociation time of 120 s. A duplicate injection of one concentration and a buffer injection (blank) were used for assessing chip surface performance and double referencing, respectively. […] Kinetic constants and KD values (M) were calculated from local fittings using 1:1 kinetics binding model for peptide (analyte) binding to Nb–biotin on the BIAevaluation software (Cytiva).

[3] = system: Nb6E; conditions: cited from earlier work
[4] = molecular target: Nb127; experiment: SPR analysis of 127-tag binding to immobilized Nb127-biotin; conditions: Biacore T200, Nb127-biotin on streptavidin chip, 127 tag 400-6.25 nM, PBS pH 7.4 + 0.05% P20, 1:1 kinetics binding model
Procedure: as §1, §2

In the case of CC[C@H](C)[C@H](NC(=O)[C@H](CCC(N)=O)NC(=O)[C@H](CCCNC(=N)N)NC(=O)[C@H](C)NC(=O)[C@H](CCSC)NC(=O)[C@H](CCC(=O)O)NC(=O)[C@H](CCCCN)NC(=O)[C@H](C)NC(=O)[C@H](CCC(=O)O)NC(=O)[C@H](CCC(N)=O)NC(=O)[C@H](CC(=O)O)NC(=O)[C@H](C)NC(=O)[C@H](CCC(N)=O)NC(=O)CNC(=O)CNC(=O)CN)C(=O)N[C@@H](CO)C(N)=O [6E-M9] (H-GGGQADQEAKEMARQIS-NH2), the “rank of binding affinities (competition binding assay)” value [1] is reported as 6E-M9 > 6E-WT > 6E-F9 and the “rank of binding affinities (SPR)” value [2] is reported as 6E-M9 > 6E-WT > 6E-F9.
In the case of CC[C@H](C)[C@H](NC(=O)[C@H](CCC(N)=O)NC(=O)[C@H](CCCNC(=N)N)NC(=O)[C@H](C)NC(=O)[C@H](CC(C)C)NC(=O)[C@H](CCC(=O)O)NC(=O)[C@H](CCCCN)NC(=O)[C@H](C)NC(=O)[C@H](CCC(=O)O)NC(=O)[C@H](CCC(N)=O)NC(=O)[C@H](CC(=O)O)NC(=O)[C@H](C)NC(=O)[C@@H](N)CCC(N)=O)C(=O)N[C@@H](CO)C(N)=O [6E-L9 (WT)] (H-QADQEAKELARQIS-NH2), the “rank of binding affinities (competition binding assay)” value [1] is listed as 6E-M9 > 6E-WT > 6E-F9, the “experimental binding to Nb6E (earlier work)” value [3] is listed as “substantially higher affinity than the 6E-A9 variant” and the “rank of binding affinities (SPR)” value [2] is listed as 6E-M9 > 6E-WT > 6E-F9.
NCCCC[C@H](NC(=O)[C@H](Cc1c[nH]c2ccccc12)NC(=O)[C@H](Cc1ccccc1)NC(=O)[C@H](CC(=O)O)NC(=O)[C@H](CCC(=O)O)NC(=O)[C@H](Cc1ccccc1)NC(=O)[C@@H](N)CO)C(=O)NCC(=O)N[C@@H](CCC(=O)O)C(=O)N[C@@H](CC(=O)O)C(N)=O [127-tag] (H-SFEDFWKGED-NH2) showed a Kd [4] of 14 nM.
